Test results: US6706663B2, “Herbicidal 3-heterocyclic substituted benzisothiazole and benzisoxazole compounds” (Wyeth, priority 2000, dated 2004)

Assays:
[1] = tested on: ECHCG (Echinochloa crus-galli); test: Postemergence herbicidal evaluation; type: in vivo, (L.) Beau
Procedure, shortened: (§1)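 Visual 0–9 injury scores versus control plants, covering stand, vigour, malformation, size, chlorosis and general appearance, taken four to five weeks post-spray and averaged over replicate tests. Plants were sprayed at roughly two weeks old and held on greenhouse benches.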

SETVI (Setaria viridis) = test: Postemergence herbicidal evaluation; type: in vivo, (L.) Beau
Procedure, shortened: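 Postemergence foliar spray on two-week-old seedlings, dose equivalent to about 0.0040 to 1.000 kg/ha. Ratings use a 0-9 visual scale relative to control at four to five weeks.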

[2] = tested on: TRZAWR (Wheat, Winter, cv Riband); test: Postemergence herbicidal evaluation; type: in vivo, Triticum aestivum
Procedure, shortened: as §1

[3] = tested on: ABUTH (Abutilon theophrasti); test: Preemergence herbicidal evaluation; type: in vivo, Medic.; conditions: rated 4-5 weeks after treatment
[4] = tested on: AMBEL (Ambrosia artemisifolia); test: Preemergence herbicidal evaluation; type: in vivo, L.; conditions: rated 4-5 weeks after treatment
Procedure, shortened: (§2)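 Rating 0–9, visual, vs control; 4–5 wk after spraying seeded cups with compound in aq. acetone; conventional greenhouse care.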

[5] = tested on: CASOB (Cassia obtusifolia); test: Preemergence herbicidal evaluation; type: in vivo, L.; conditions: rated 4-5 weeks after treatment
Procedure, shortened: as §2

[6] = tested on: CHEAL (Chenopodium album); test: Preemergence herbicidal evaluation; type: in vivo, L.; conditions: rated 4-5 weeks after treatment
Procedure, shortened: as §2

[7] = tested on: IPOHE (Ipomoea hederacea); test: Preemergence herbicidal evaluation; type: in vivo, (L.) Jacq.; conditions: rated 4-5 weeks after treatment
[8] = tested on: GLXMAW (Soybean, Williams); test: Preemergence herbicidal evaluation; type: in vivo, Glycine max, (L.) Merr. cv Williams; conditions: rated 4-5 weeks after treatment
ZEAMX (Corn, Field) = test: Preemergence herbicidal evaluation; type: in vivo, Zea mays, L.; conditions: rated 4-5 weeks after treatment
[9] = tested on: ECHORC (Echinochloa oryzoides); test: Flooded paddy, preemergence weed control; type: in vivo, Echinochloa oryzoides (Ard.) Fritsch.; conditions: rated 3-4 weeks after treatment, 0-9 rating scale
Procedure, shortened: (§3)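 Visual 0–9 ratings versus controls scored stand, vigor, malformation, size, chlorosis and overall appearance. Plants grew from seeds or propagating organs sown 0.5 cm deep in silt loam, with water held 1.5–3 cm above the soil for the whole test under greenhouse care.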

CYPIR (Cyperus iria) = test: Flooded paddy, preemergence weed control; type: in vivo; conditions: rated 3-4 weeks after treatment, 0-9 rating scale
Procedure, shortened: as §3

[10] = tested on: CYPSE (Cyperus serotinus); test: Flooded paddy, preemergence weed control; type: in vivo, Rottb.; conditions: rated 3-4 weeks after treatment, 0-9 rating scale
Procedure, shortened: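 Seeds or propagules were planted 0.5 cm deep in silt loam and flooded to 1.5–3 cm. Compounds in 50/50 v/v aqueous/acetone were pipetted into the flood water at about 0.0080 to 0.1250 kg/ha. After 3–4 weeks in the greenhouse, effect was rated visually on a 0–9 scale versus untreated control.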

[11] = tested on: MOOVA (Monochoria vaginalis); test: Flooded paddy, preemergence weed control; type: in vivo, Presl.; conditions: rated 3-4 weeks after treatment, 0-9 rating scale
Procedure, shortened: as §3

[12] = tested on: SAGPY (Sagittaria pygmaea); test: Flooded paddy, preemergence weed control; type: in vivo, L.; conditions: rated 3-4 weeks after treatment, 0-9 rating scale
Procedure, shortened: as §3

ORYSAT (Rice, Tebonnet) = test: Flooded paddy, post-transplant rice tolerance; type: in vivo, Oryza sativa, (L.) Tebonnet; conditions: flooded paddy, post-transplant rice, rated 3-4 weeks after treatment, 0-9 rating scale
Procedure, shortened: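 Scores (0-9) reflect visual injury relative to untreated plants in flooded silt loam. Each pot held two transplanted ten-day-old seedlings under 1.5 to 3 cm standing water in the greenhouse.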

SMILES: Cc1ccc(-c2nsc3ccc(-n4c(=O)cc(C(F)(F)F)n(C)c4=O)cc23)nc1 [Compound 42, 1-methyl-3-[3-(5-methyl-2-pyridyl)-1,2-benzisothiazol-5-yl]-6-(trifluoromethyl)uracil]
- Postemergence herbicidal rating, ECHCG ([1]; rate 0.0320 kg/ha): 1.0
- Postemergence herbicidal rating, ECHCG ([1]; rate 0.0620 kg/ha): 1.0
- Postemergence herbicidal rating, ECHCG ([1]; rate 0.1250 kg/ha): 3.0
- Postemergence herbicidal rating, SETVI (SETVI (Setaria viridis); rate 0.0320 kg/ha): 5.0
- Postemergence herbicidal rating, SETVI (SETVI (Setaria viridis); rate 0.0620 kg/ha): 5.0
- Postemergence herbicidal rating, SETVI (SETVI (Setaria viridis); rate 0.1250 kg/ha): 9.0
- Postemergence herbicidal rating, TRZAWR ([2]; rate 0.0320 kg/ha): 4.0
- Postemergence herbicidal rating, TRZAWR ([2]; rate 0.0620 kg/ha): 5.0
- Postemergence herbicidal rating, TRZAWR ([2]; rate 0.1250 kg/ha): 5.0
- Preemergence herbicidal rating ABUTH ([3]; Rate 0.0620 kg/ha): 2.0
- Preemergence herbicidal rating ABUTH ([3]; Rate 0.1250 kg/ha): 6.5
- Preemergence herbicidal rating ABUTH ([3]; Rate 0.2500 kg/ha): 9.0
- Preemergence herbicidal rating AMBEL ([4]; Rate 0.0620 kg/ha): 1.0
- Preemergence herbicidal rating AMBEL ([4]; Rate 0.1250 kg/ha): 4.5
- Preemergence herbicidal rating AMBEL ([4]; Rate 0.2500 kg/ha): 9.0
- Preemergence herbicidal rating CASOB ([5]; Rate 0.0620 kg/ha): 0.5
- Preemergence herbicidal rating CASOB ([5]; Rate 0.1250 kg/ha): 0.5
- Preemergence herbicidal rating CASOB ([5]; Rate 0.2500 kg/ha): 0.0
- Preemergence herbicidal rating CHEAL ([6]; Rate 0.0620 kg/ha): 9.0
- Preemergence herbicidal rating CHEAL ([6]; Rate 0.1250 kg/ha): 9.0
- Preemergence herbicidal rating CHEAL ([6]; Rate 0.2500 kg/ha): 9.0
- Preemergence herbicidal rating IPOHE ([7]; Rate 0.0620 kg/ha): 1.0
- Preemergence herbicidal rating IPOHE ([7]; Rate 0.1250 kg/ha): 2.0
- Preemergence herbicidal rating IPOHE ([7]; Rate 0.2500 kg/ha): 4.5
- Preemergence herbicidal rating GLXMAW ([8]; Rate 0.0620 kg/ha): 0.0
- Preemergence herbicidal rating GLXMAW ([8]; Rate 0.1250 kg/ha): 1.0
- Preemergence herbicidal rating GLXMAW ([8]; Rate 0.2500 kg/ha): 2.5
- Preemergence herbicidal rating ZEAMX (ZEAMX (Corn, Field); Rate 0.0620 kg/ha): 3.5
- Preemergence herbicidal rating ZEAMX (ZEAMX (Corn, Field); Rate 0.1250 kg/ha): 6.0
- Preemergence herbicidal rating ZEAMX (ZEAMX (Corn, Field); Rate 0.2500 kg/ha): 6.5
- herbicidal rating, ECHORC ([9]; rate 0.0320 kg/ha): 2.0
- herbicidal rating, ECHORC ([9]; rate 0.1250 kg/ha): 6.0
- herbicidal rating, CYPIR (CYPIR (Cyperus iria); rate 0.0320 kg/ha): 3.0
- herbicidal rating, CYPIR (CYPIR (Cyperus iria); rate 0.1250 kg/ha): 6.0
- herbicidal rating, CYPSE ([10]; rate 0.0320 kg/ha): 0.0
- herbicidal rating, CYPSE ([10]; rate 0.1250 kg/ha): 0.0
- herbicidal rating, MOOVA ([11]; rate 0.0320 kg/ha): 8.0
- herbicidal rating, MOOVA ([11]; rate 0.1250 kg/ha): 9.0
- herbicidal rating, SAGPY ([12]; rate 0.0320 kg/ha): 0.0
- herbicidal rating, SAGPY ([12]; rate 0.1250 kg/ha): 3.0
- herbicidal rating, ORYSAT (rice tolerance) (ORYSAT (Rice, Tebonnet); rate 0.0320 kg/ha): 3.0
- herbicidal rating, ORYSAT (rice tolerance) (ORYSAT (Rice, Tebonnet); rate 0.1250 kg/ha): 4.0
